{"source": "ChEMBL document CHEMBL2073866", "about": "“Cellular pharmacokinetic aspects of reversal effect of itraconazole on P-glycoprotein-mediated resistance of anticancer drugs” (Biol Pharm Bull, 1999)", "key": {"[1]": {"target": "T1, ATP-dependent translocase ABCB1 (Homo sapiens, UniProt P08183)", "T1 sequence (P08183 whole entry)": "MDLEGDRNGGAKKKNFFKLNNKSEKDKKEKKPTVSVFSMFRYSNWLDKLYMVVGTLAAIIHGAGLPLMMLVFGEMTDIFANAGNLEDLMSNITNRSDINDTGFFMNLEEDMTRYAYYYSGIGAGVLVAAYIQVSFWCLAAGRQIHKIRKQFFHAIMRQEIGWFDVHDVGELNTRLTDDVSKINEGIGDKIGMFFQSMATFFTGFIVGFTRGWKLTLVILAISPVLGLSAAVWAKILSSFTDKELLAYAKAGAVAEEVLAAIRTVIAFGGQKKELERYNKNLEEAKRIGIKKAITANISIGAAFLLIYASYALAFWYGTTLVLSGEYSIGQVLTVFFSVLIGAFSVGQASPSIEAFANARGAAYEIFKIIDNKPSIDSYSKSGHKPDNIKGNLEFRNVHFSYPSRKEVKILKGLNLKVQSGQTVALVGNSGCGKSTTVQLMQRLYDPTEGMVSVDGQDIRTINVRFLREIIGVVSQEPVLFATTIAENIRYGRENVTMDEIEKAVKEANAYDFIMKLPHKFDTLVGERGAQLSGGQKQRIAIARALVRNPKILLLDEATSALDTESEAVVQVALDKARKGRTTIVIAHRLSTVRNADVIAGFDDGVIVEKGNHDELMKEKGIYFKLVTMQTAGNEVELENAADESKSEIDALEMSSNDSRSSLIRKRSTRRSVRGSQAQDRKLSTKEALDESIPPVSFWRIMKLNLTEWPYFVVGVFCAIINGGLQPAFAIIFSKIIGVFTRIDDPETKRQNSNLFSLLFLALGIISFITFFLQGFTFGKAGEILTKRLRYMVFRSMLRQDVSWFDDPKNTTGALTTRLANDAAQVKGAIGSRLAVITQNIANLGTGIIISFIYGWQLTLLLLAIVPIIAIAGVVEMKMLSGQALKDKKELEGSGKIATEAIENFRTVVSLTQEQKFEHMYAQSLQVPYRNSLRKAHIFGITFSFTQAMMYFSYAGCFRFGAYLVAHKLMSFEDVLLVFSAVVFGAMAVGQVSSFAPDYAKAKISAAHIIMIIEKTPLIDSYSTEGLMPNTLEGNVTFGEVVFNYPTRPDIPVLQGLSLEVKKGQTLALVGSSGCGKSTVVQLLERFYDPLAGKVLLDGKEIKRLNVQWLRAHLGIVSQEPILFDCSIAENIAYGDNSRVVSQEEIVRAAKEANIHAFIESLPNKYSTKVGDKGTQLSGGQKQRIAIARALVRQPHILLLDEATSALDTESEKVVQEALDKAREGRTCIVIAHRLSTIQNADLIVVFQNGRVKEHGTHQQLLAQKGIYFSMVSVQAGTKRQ", "test": "TP_TRANSPORTER: inhibition of Azidopine photoaffinity labelling (Azidopine: 0.4 uM, Doxorubicin: 400 uM) in membranes from MDR1-expressing LLC-PK1 cells", "format": "functional, cell membranes, Membrane", "settings": "pig, llc-pk1, 400 µM"}, "[2]": {"target": "T1, ATP-dependent translocase ABCB1", "test": "TP_TRANSPORTER: inhibition of Azidopine photoaffinity labelling (Azidopine: 0.4 uM, Vinblastine: 400 uM) in membranes from MDR1-expressing LLC-PK1 cells", "format": "functional, cell membranes, Membrane", "settings": "pig, llc-pk1, 400 µM"}, "[3]": {"target": "T1, ATP-dependent translocase ABCB1", "test": "TP_TRANSPORTER: inhibition of Azidopine photoaffinity labelling (Azidopine: 0.4 uM, Daunorubicin: 400 uM) in membranes from MDR1-expressing LLC-PK1 cells", "format": "functional, cell membranes, Membrane", "settings": "pig, llc-pk1, 400 µM"}, "[4]": {"target": "T1, ATP-dependent translocase ABCB1", "test": "TP_TRANSPORTER: transepithelial transport (basal to apical) in MDR1-expressing LLC-PK1 cells", "format": "functional, cell-based", "settings": "pig"}, "[5]": {"target": "T1, ATP-dependent translocase ABCB1", "test": "TP_TRANSPORTER: inhibition of Digoxin transepithelial transport (basal to apical) (Digoxin: 0.1 uM, Itraconazole: 100 uM) in MDR1-expressing LLC-PK1 cells", "format": "functional, cell-based", "settings": "pig, llc-pk1, 100 µM"}, "[6]": {"target": "T1, ATP-dependent translocase ABCB1", "test": "TP_TRANSPORTER: inhibition of Vinblastine transepithelial transport (basal to apical) (Vinblastine: 0.1 uM, Itraconazole: 100 uM) in MDR1-expressing LLC-PK1 cells", "format": "functional, cell-based", "settings": "pig, llc-pk1, 100 µM"}, "[7]": {"target": "T1, ATP-dependent translocase ABCB1", "test": "TP_TRANSPORTER: inhibition of Doxorubicin transepithelial transport (basal to apical) (Doxorubicin: 0.1 uM, Itraconazole: 100 uM) in MDR1-expressing LLC-PK1 cells", "format": "functional, cell-based", "settings": "pig, llc-pk1, 100 µM"}, "[8]": {"target": "T1, ATP-dependent translocase ABCB1", "test": "TP_TRANSPORTER: inhibition of Azidopine photoaffinity labelling in membranes from MDR1-expressing LLC-PK1 cells", "format": "functional, cell membranes, Membrane", "settings": "pig"}}}
{"molecule": "COc1cccc2c1C(=O)c1c(O)c3c(c(O)c1C2=O)C[C@@](O)(C(=O)CO)C[C@@H]3O[C@H]1C[C@H](N)[C@H](O)[C@H](C)O1", "note": "[DOXORUBICIN]", "values": [{"measurement": "Activity", "setting": "[1]", "value": "inhibitor [+]"}]}
{"molecule": "CC[C@]1(O)C[C@@H]2CN(CCc3c([nH]c4ccccc34)[C@@](C(=O)OC)(c3cc4c(cc3OC)N(C)[C@H]3[C@@](O)(C(=O)OC)[C@H](OC(C)=O)[C@]5(CC)C=CCN6CC[C@]43[C@@H]65)C2)C1", "note": "[VINBLASTINE]", "values": [{"measurement": "Activity", "setting": "[2]", "value": "inhibitor [+]"}]}
{"molecule": "COc1cccc2c1C(=O)c1c(O)c3c(c(O)c1C2=O)C[C@@](O)(C(C)=O)C[C@@H]3O[C@H]1C[C@H](N)[C@H](O)[C@H](C)O1", "note": "[DAUNORUBICIN]", "values": [{"measurement": "Activity", "setting": "[3]", "value": "inhibitor [+]"}, {"measurement": "Activity", "setting": "[4]", "value": "substrate [+]"}]}
{"molecule": "CCC(C)n1ncn(-c2ccc(N3CCN(c4ccc(OCC5COC(Cn6cncn6)(c6ccc(Cl)cc6Cl)O5)cc4)CC3)cc2)c1=O", "note": "(stereo not drawn) [ITRACONAZOLE]", "values": [{"measurement": "Activity", "setting": "[5]", "value": "inhibitor [+]"}, {"measurement": "Activity", "setting": "[6]", "value": "inhibitor [+]"}, {"measurement": "Activity", "setting": "[7]", "value": "inhibitor [+]"}, {"measurement": "Activity", "setting": "[8]", "value": "inhibitor [+]"}]}
